{
  "source": "patent US10730889B2",
  "about": "“Amido spirocyclic amide and sulfonamide derivatives” (Forma TM, LLC, priority 2012, dated 2020)",
  "data": [
    {"test_system": "A2780 cells", "assay": "In-vitro cell proliferation assay (SRB, 72 hours)", "assay_type": "cell-based", "settings": "Homo sapiens, A2780, 72 h, A2780 cells, 72 hours, SRB; read-out: Cell Proliferation (IC50)", "units": {"IC50": "nM"}, "values": [
      {"molecule": "O=C(NCC1CC12CCN(C(=O)c1c[nH]cn1)CC2)c1cc2ccncc2o1", "note": "(stereo not drawn) [Example 101, N-[[6-(1H-imidazole-4-carbonyl)-6-azaspiro[2.5]octan-2-yl]methyl]furo[2,3-c]pyridine-2-carboxamide]", "IC50": 2000},
      {"molecule": "O=C(NCC1CC12CCN(C(=O)c1ccncn1)CC2)c1cc2ccncc2o1", "note": "(stereo not drawn) [Example 102, N-[[6-(pyrimidine-4-carbonyl)-6-azaspiro[2.5]octan-2-yl]methyl]furo[2,3-c]pyridine-2-carboxamide]", "IC50": 2000},
      {"molecule": "O=C(NCC1CC12CCN(C(=O)c1cccnc1)CC2)c1cc2ccncc2o1", "note": "(stereo not drawn) [Example 103, N-[[6-(pyridine-3-carbonyl)-6-azaspiro[2.5]octan-2-yl]methyl]furo[2,3-c]pyridine-2-carboxamide]", "IC50": 2000},
      {"molecule": "O=C(NCC1CC12CCN(C(=O)c1cc[nH]n1)CC2)c1cc2ccncc2o1", "note": "(stereo not drawn) [Example 104, N-[[6-(1H-pyrazole-3-carbonyl)-6-azaspiro[2.5]octan-2-yl]methyl]furo[2,3-c]pyridine-2-carboxamide]", "IC50": 2000},
      {"molecule": "Cn1cnc(C(=O)N2CCC3(CC2)CC3CNC(=O)c2cc3ccncc3o2)c1", "note": "(stereo not drawn) [Example 105, N-[[6-(1-methylimidazole-4-carbonyl)-6-azaspiro[2.5]octan-2-yl]methyl]furo[2,3-c]pyridine-2-carboxamide]", "IC50": 755},
      {"molecule": "Cc1n[nH]cc1C(=O)N1CCC2(CC1)CC2CNC(=O)c1cc2ccncc2o1", "note": "(stereo not drawn) [Example 106, N-[[6-(3-methyl-1H-pyrazole-4-carbonyl)-6-azaspiro[2.5]octan-2-yl]methyl]furo[2,3-c]pyridine-2-carboxamide]", "IC50": 743},
      {"molecule": "Cn1nccc1C(=O)N1CCC2(CC1)CC2CNC(=O)c1cc2ccncc2o1", "note": "(stereo not drawn) [Example 107, N-[[6-(2-methylpyrazole-3-carbonyl)-6-azaspiro[2.5]octan-2-yl]methyl]furo[2,3-c]pyridine-2-carboxamide]", "IC50": 2000},
      {"molecule": "Cc1cc(C(=O)N2CCC3(CC2)CC3CNC(=O)c2cc3ccncc3o2)n[nH]1", "note": "(stereo not drawn) [Example 108, N-[[6-(5-methyl-1H-pyrazole-3-carbonyl)-6-azaspiro[2.5]octan-2-yl]methyl]furo[2,3-c]pyridine-2-carboxamide]", "IC50": 449},
      {"molecule": "Cn1ccc(C(=O)N2CCC3(CC2)CC3CNC(=O)c2cc3ccncc3o2)n1", "note": "(stereo not drawn) [Example 109, N-[[6-(1-methylpyrazole-3-carbonyl)-6-azaspiro[2.5]octan-2-yl]methyl]furo[2,3-c]pyridine-2-carboxamide]", "IC50": 299},
      {"molecule": "O=C(NCC1CC12CCN(C(=O)c1cccnn1)CC2)c1cc2ccncc2o1", "note": "(stereo not drawn) [Example 110, N-[[6-(pyridazine-3-carbonyl)-6-azaspiro[2.5]octan-2-yl]methyl]furo[2,3-c]pyridine-2-carboxamide]", "IC50": 2000},
      {"molecule": "O=C(NCC1CC12CCN(C(=O)c1cnccn1)CC2)c1cc2ccncc2o1", "note": "(stereo not drawn) [Example 112, N-[[6-(pyrazine-2-carbonyl)-6-azaspiro[2.5]octan-2-yl]methyl]furo[2,3-c]pyridine-2-carboxamide]", "IC50": 2000},
      {"molecule": "O=C(NCC1CC12CCN(C(=O)c1ccnnc1)CC2)c1cc2ccncc2o1", "note": "(stereo not drawn) [Example 113, N-[[6-(pyridazine-4-carbonyl)-6-azaspiro[2.5]octan-2-yl]methyl]furo[2,3-c]pyridine-2-carboxamide]", "IC50": 2000},
      {"molecule": "Cn1cc(C(=O)N2CCC3(CC2)CC3CNC(=O)c2cc3ccncc3o2)cn1", "note": "(stereo not drawn) [Example 114, N-[[6-(1-methylpyrazole-4-carbonyl)-6-azaspiro[2.5]octan-2-yl]methyl]furo[2,3-c]pyridine-2-carboxamide]", "IC50": 2000},
      {"molecule": "Cc1cc(C(=O)N2CCC3(CC2)CC3CNC(=O)c2cc3ccncc3o2)nn1C", "note": "(stereo not drawn) [Example 115, N-[[6-(1,5-dimethylpyrazole-3-carbonyl)-6-azaspiro[2.5]octan-2-yl]methyl]furo[2,3-c]pyridine-2-carboxamide]", "IC50": 37.6},
      {"molecule": "Cc1cc(C(=O)N2CCC3(CC2)CC3CNC(=O)c2cc3ccncc3o2)no1", "note": "(stereo not drawn) [Example 117, N-[[6-(5-methylisoxazole-3-carbonyl)-6-azaspiro[2.5]octan-2-yl]methyl]furo[2,3-c]pyridine-2-carboxamide]", "IC50": 752},
      {"molecule": "Cc1nonc1C(=O)N1CCC2(CC1)CC2CNC(=O)c1cc2ccncc2o1", "note": "(stereo not drawn) [Example 118, N-[[6-(4-methyl-1,2,5-oxadiazole-3-carbonyl)-6-azaspiro[2.5]octan-2-yl]methyl]furo[2,3-c]pyridine-2-carboxamide]", "IC50": 1070},
      {"molecule": "Cc1ncccc1C(=O)N1CCC2(CC1)CC2CNC(=O)c1cc2ccncc2o1", "note": "(stereo not drawn) [Example 119, N-[[6-(2-methylpyridine-3-carbonyl)-6-azaspiro[2.5]octan-2-yl]methyl]furo[2,3-c]pyridine-2-carboxamide]", "IC50": 446},
      {"molecule": "Cc1ccncc1C(=O)N1CCC2(CC1)CC2CNC(=O)c1cc2ccncc2o1", "note": "(stereo not drawn) [Example 120, N-[[6-(4-methylpyridine-3-carbonyl)-6-azaspiro[2.5]octan-2-yl]methyl]furo[2,3-c]pyridine-2-carboxamide]", "IC50": 92.8},
      {"molecule": "Cc1cc(C(=O)N2CCC3(CC2)CC3CNC(=O)c2cc3ccncc3o2)ccn1", "note": "(stereo not drawn) [Example 121, N-[[6-(2-methylpyridine-4-carbonyl)-6-azaspiro[2.5]octan-2-yl]methyl]furo[2,3-c]pyridine-2-carboxamide]", "IC50": 1090},
      {"molecule": "Cc1cnc(C(=O)N2CCC3(CC2)CC3CNC(=O)c2cc3ccncc3o2)cn1", "note": "(stereo not drawn) [Example 122, N-[[6-(5-methylpyrazine-2-carbonyl)-6-azaspiro[2.5]octan-2-yl]methyl]furo[2,3-c]pyridine-2-carboxamide]", "IC50": 2000},
      {"molecule": "O=C(NCC1CC12CCN(C(=O)c1cc(C3CC3)n[nH]1)CC2)c1cc2ccncc2o1", "note": "(stereo not drawn) [Example 123, N-[[6-(3-cyclopropyl-1H-pyrazole-5-carbonyl)-6-azaspiro[2.5]octan-2-yl]methyl]furo[2,3-c]pyridine-2-carboxamide]", "IC50": 83},
      {"molecule": "CCn1ncc(C(=O)N2CCC3(CC2)CC3CNC(=O)c2cc3ccncc3o2)c1C", "note": "(stereo not drawn) [Example 124, N-[[6-(1-ethyl-5-methyl-pyrazole-4-carbonyl)-6-azaspiro[2.5]octan-2-yl]methyl]furo[2,3-c]pyridine-2-carboxamide]", "IC50": 124},
      {"molecule": "Cc1noc(C)c1C(=O)N1CCC2(CC1)CC2CNC(=O)c1cc2ccncc2o1", "note": "(stereo not drawn) [Example 125, N-[[6-(3,5-dimethylisoxazole-4-carbonyl)-6-azaspiro[2.5]octan-2-yl]methyl]furo[2,3-c]pyridine-2-carboxamide]", "IC50": 221},
      {"molecule": "CCn1cc(C(=O)N2CCC3(CC2)CC3CNC(=O)c2cc3ccncc3o2)cn1", "note": "(stereo not drawn) [Example 126, N-[[6-(1-ethylpyrazole-4-carbonyl)-6-azaspiro[2.5]octan-2-yl]methyl]furo[2,3-c]pyridine-2-carboxamide]", "IC50": 833},
      {"molecule": "N#Cc1ccc(C(=O)N2CCC3(CC2)CC3CNC(=O)c2cc3ccncc3o2)cn1", "note": "(stereo not drawn) [Example 127, N-[[6-(6-cyanopyridine-3-carbonyl)-6-azaspiro[2.5]octan-2-yl]methyl]furo[2,3-c]pyridine-2-carboxamide]", "IC50": 2000},
      {"molecule": "Cc1nc(C)c(C(=O)N2CCC3(CC2)CC3CNC(=O)c2cc3ccncc3o2)o1", "note": "(stereo not drawn) [Example 128, N-[[6-(2,4-dimethyloxazole-5-carbonyl)-6-azaspiro[2.5]octan-2-yl]methyl]furo[2,3-c]pyridine-2-carboxamide]", "IC50": 29.2},
      {"molecule": "O=C(NCC1CC12CCN(C(=O)c1ccnc(N3CCOCC3)c1)CC2)c1cc2ccncc2o1", "note": "(stereo not drawn) [Example 129, N-[[6-(2-morpholinopyridine-4-carbonyl)-6-azaspiro[2.5]octan-2-yl]methyl]furo[2,3-c]pyridine-2-carboxamide]", "IC50": 37.3},
      {"molecule": "Cn1cc(-c2ccno2)c(C(=O)N2CCC3(CC2)CC3CNC(=O)c2cc3ccncc3o2)n1", "note": "(stereo not drawn) [Example 132, N-[[6-(4-isoxazol-5-yl-1-methyl-pyrazole-3-carbonyl)-6-azaspiro[2.5]octan-2-yl]methyl]furo[2,3-c]pyridine-2-carboxamide]", "IC50": 7.2},
      {"molecule": "CC(=O)Nc1cc(C(=O)N2CCC3(CC2)CC3CNC(=O)c2cc3ccncc3o2)ccn1", "note": "(stereo not drawn) [Example 133, N-[[6-(2-acetamidopyridine-4-carbonyl)-6-azaspiro[2.5]octan-2-yl]methyl]furo[2,3-c]pyridine-2-carboxamide]", "IC50": 696},
      {"molecule": "O=C(NCC1CC12CCN(C(=O)c1c[nH]nc1-n1cnnn1)CC2)c1cc2ccncc2o1", "note": "(stereo not drawn) [Example 134, N-[[6-[3-(tetrazol-1-yl)-1H-pyrazole-4-carbonyl]-6-azaspiro[2.5]octan-2-yl]methyl]furo[2,3-c]pyridine-2-carboxamide]", "IC50": 514},
      {"molecule": "CC(=O)Nc1cccc(C(=O)N2CCC3(CC2)CC3CNC(=O)c2cc3ccncc3o2)n1", "note": "(stereo not drawn) [Example 135, N-[[6-(6-acetamidopyridine-2-carbonyl)-6-azaspiro[2.5]octan-2-yl]methyl]furo[2,3-c]pyridine-2-carboxamide]", "IC50": 36.4},
      {"molecule": "CCc1noc(C)c1C(=O)N1CCC2(CC1)CC2CNC(=O)c1cc2ccncc2o1", "note": "(stereo not drawn) [Example 136, N-[[6-(3-ethyl-5-methyl-isoxazole-4-carbonyl)-6-azaspiro[2.5]octan-2-yl)methyl]furo[2,3-c]pyridine-2-carboxamide]", "IC50": 169},
      {"molecule": "CCn1nc(C)cc1C(=O)N1CCC2(CC1)CC2CNC(=O)c1cc2ccncc2o1", "note": "(stereo not drawn) [Example 137, N-[[6-(2-ethyl-5-methyl-pyrazole-3-carbonyl)-6-azaspiro[2.5]octan-2-yl]methyl]furo[2,3-c]pyridine-2-carboxamide]", "IC50": 116},
      {"molecule": "CCn1cc(C(=O)N2CCC3(CC2)CC3CNC(=O)c2cc3ccncc3o2)c(C)n1", "note": "(stereo not drawn) [Example 138, N-[[6-(1-ethyl-3-methyl-pyrazole-4-carbonyl)-6-azaspiro[2.5]octan-2-yl)methyl]furo[2,3-c]pyridine-2-carboxamide]", "IC50": 2000},
      {"molecule": "Cc1nocc1C(=O)N1CCC2(CC1)CC2CNC(=O)c1cc2ccncc2o1", "note": "(stereo not drawn) [Example 139, N-[[6-(3-methylisoxazole-4-carbonyl)-6-azaspiro[2.5]octan-2-yl]methyl]furo[2,3-c]pyridine-2-carboxamide]", "IC50": 2000},
      {"molecule": "Cc1ccn(CC(C)C(=O)N2CCC3(CC2)CC3CNC(=O)c2cc3ccncc3o2)n1", "note": "(stereo not drawn) [Example 140, N-[[6-[2-methyl-3-(3-methylpyrazol-1-yl)propanoyl]-6-azaspiro[2.5]octan-2-yl]methyl]furo[2,3-c]pyridine-2-carboxamide]", "IC50": 2000}
    ]}
  ]
}
